Experimental data taken from US20200087271A1, “N-CYCLOBUTYL-THIAZOL-5-CARBOXAMIDES WITH NEMATICIDAL ACTIVITY” (SYNGENTA PARTICIPATIONS AG, priority 2016, published 2020).
Where two headings read alike, the source gives them in different places. Values belong to the molecule of their own block, whether it stands above or below them.

Assays:
[1] = system: Meloidogyne spp. (root-knot nematode); assay: Meloidogyne spp. contact activity, preventive, cucumber seed in filter paper pouch; format: in vivo
Procedure: (§1) Filter papers (9 cm×4.5 cm) with a small pocket were placed into plastic pouches (12 cm×6 cm). One cucumber cv. Toshka seed was placed in the centre of the filter paper pocket of all the pouches needed for a test. […] Prior to application, the compound solution was prepared at twice the concentration required and the egg suspension is prepared with FORL nutrient solution with 3000 eggs/0.5 ml. After applying all the treatments, 3000 eggs (in 0.5 ml of FORL nutrient solution) were pipetted into the pouches. The pouches were incubated in a moist chamber for twelve days and watered regularly to maintain good filter paper moisture essential for the growing cucumber root system. After this period, the filter paper containing the germinated cucumber seedling was removed from the plastic pouch to assess the number of galls caused by Meloidogyne spp. per root system. Phytotoxicity was measured as a reduction of growth of the emerged cucumber seedling in comparison to the control.
as §1, with “system.” for “system. Phytotoxicity was measured as a reduction of growth of the emerged cucumber seedling in comparison to the control.”

M. incognita = assay: Meloidogyne spp. contact activity, preventive, cucumber in pots treated with WP10 suspension; format: in vivo
Procedure: Cucumber cv. Toshka seeds were sown directly into pots filled with a sandy substrate. Six days later pots were each treated with 5 ml of a WP10 suspension of the test compound. Hereafter, pots were inoculated with 3000 eggs of M. incognita. The trial was harvested fourteen days after trial application and inoculation. Root galling was assessed according to Zeck's gall index (Zeck W. M. (1971) Ein Bonitierungsschema zur Feldauswertung von Wurzelgallenbefall. Pflanzenschutznachrichten Bayer 24, 1: 144-147). Phytotoxicity was measured as a reduction of growth of the emerged cucumber seedling in comparison to the control.

LogP (Table 1) = format: physicochemical
[2] = system: Pratylenchus zeae (Corn Lesion Nematode); assay: Pratylenchus zeae contact activity, preventive, coated corn seeds; format: in vivo; settings: seed treatment 1 mg Al/seed, corn cv. LG4620, 1500 nematodes, 7 days after inoculation
Procedure: Coated corn cv. LG4620 seeds were sown 1 cm deep into 45 ml pots with soil (7:3 w/w—a mixture of 70% field soil and 30% quartz Sand). Two days after sowing the pots were infested with 1500 nematodes (all stages) of Pratylenchus zeae within a 2 ml suspension in two holes to the left and right of the seed hole. Assessment of phytotoxicity (in %) and nematode numbers within the root system occurred 7 days after inoculation. The upper plant part was cut off and the roots were washed free of soil debris. Nematodes within the roots were stained with acid fuchsin stain solution. Nematodes within the roots were quantified under a dissecting scope at 40×. Seed treatment rate: 1 mg Al/seed

[3] = 1.6 ppm, cucumber pouch test, read-out: Mortality (%)
[4] = 8 ppm, cucumber pouch test, read-out: Mortality (%)
[5] = 40 ppm, cucumber pouch test, read-out: Mortality (%)
[6] = 200 ppm, cucumber pouch test, read-out: Mortality (%)
[7] = 0.16 ppm, cucumber pot test, read-out: Mortality (%)
[8] = 0.8 ppm, cucumber pot test, read-out: Mortality (%)
[9] = 4 ppm, cucumber pot test, read-out: Mortality (%)
[10] = 20 ppm, cucumber pot test, read-out: Mortality (%)

Compound: O=C(N[C@H]1CC[C@H]1c1ccc(Cl)cc1Cl)c1scnc1C(F)F [Example 9, N-[(1S,2S)-2-(2,4-dichlorophenyl)cyclobutyl]-4-(difluoromethyl)thiazole-5-carboxamide]
mortality at 1.6 ppm [1, 3]: 0%
mortality at 8 ppm [1, 4]: 64%
mortality at 40 ppm [1, 5]: 81%
mortality at 200 ppm [1, 6]: 98%
mortality at 0.16 ppm (M. incognita; [7]): 22%
mortality at 0.8 ppm (M. incognita; [8]): 61%
mortality at 4 ppm (M. incognita; [9]): 97%
mortality at 20 ppm (M. incognita; [10]): 98%
logP (LogP (Table 1)): 3.25

Compound: O=C(N[C@H]1CC[C@H]1c1ccc(Cl)cc1Cl)c1scnc1C(F)(F)F [Example 7, N-[(1S,2S)-2-(2,4-dichlorophenyl)cyclobutyl]-4-(trifluoromethyl)thiazole-5-carboxamide]
mortality at 1.6 ppm [1, 3]: 77%
mortality at 8 ppm [1, 4]: 90%
mortality at 40 ppm [1, 5]: 98%
mortality at 200 ppm [1, 6]: 99%
mortality at 0.16 ppm (M. incognita; [7]): 14%
mortality at 0.8 ppm (M. incognita; [8]): 14%
mortality at 4 ppm (M. incognita; [9]): 60%
mortality at 20 ppm (M. incognita; [10]): 99%
logP (LogP (Table 1)): 3.44

Compound: Cc1nc(C(F)(F)F)c(C(=O)N[C@H]2CC[C@H]2c2ccc(Cl)cc2Cl)s1 [C, reference compound]
mortality at 1.6 ppm [1]: 0%
mortality at 8 ppm [1]: 0%
mortality at 40 ppm [1]: 0%
mortality at 200 ppm [1]: 0%
mortality at 0.16 ppm (M. incognita): 0%
mortality at 0.8 ppm (M. incognita): 0%
mortality at 4 ppm (M. incognita): 0%
mortality at 20 ppm (M. incognita): 0%

logP (LogP (Table 1)): 3.21
melting point: 103 to 108 °C
Compound: O=C(N[C@H]1CC[C@H]1c1ccc(Cl)cc1)c1scnc1C(F)(F)F [Example 4, N-[(1S,2S)-2-(4-chlorophenyl)cyclobutyl]-4-(trifluoromethyl)thiazole-5-carboxamide]

logP (LogP (Table 1)): 2.92
Compound: O=C(N[C@H]1CC[C@H]1c1ccc(F)cc1Cl)c1scnc1C(F)(F)F [Example 5, N-[(1S,2S)-2-(2-chloro-4-fluoro-phenyl)cyclobutyl]-4-(trifluoromethyl)thiazole-5-carboxamide]
reduction of nematode population compared to the untreated control [2]: greater than 80%

logP (LogP (Table 1)): 2.4
Compound: O=C(N[C@H]1CC[C@H]1c1ccc(F)cc1F)c1scnc1C(F)F [Example 8, 4-(difluoromethyl)-N-[(1S,2S)-2-(2,4-difluorophenyl)cyclobutyl]thiazole-5-carboxamide]

logP (LogP (Table 1)): 2.71
Compound: O=C(N[C@H]1CC[C@H]1c1ccc(F)cc1F)c1scnc1C(F)(F)F [Example 6, N-[(1S,2S)-2-(2,4-difluorophenyl)cyclobutyl]-4-(trifluoromethyl)thiazole-5-carboxamide]
